ChEMBL document CHEMBL5036320, “Discovery of Icenticaftor (QBW251), a Cystic Fibrosis Transmembrane Conductance Regulator Potentiator with Clinical Efficacy in Cystic Fibrosis and Chronic Obstructive Pulmonary Disease” (J Med Chem, 2021)
In brackets after ≈: the same amount, converted by molar mass.

How the values were obtained:
[1] = biological target: T1, Cystic fibrosis transmembrane conductance regulator (Homo sapiens, UniProt P13569, F508DEL); experiment: Potentiation of CFTR F508del mutant (unknown origin) expressed in CHO cells assessed as chloride transport by measuring membrane potential incubated for 5 to 30 mins in presence of forskolin by Quattro assay; assay type: cell-based
[2] = Solubility of the compound at pH 6.8; assay type: physicochemical; conditions: buffer
[3] = system: Cystic fibrosis transmembrane conductance regulator (Homo sapiens), P13569 [F508del]; experiment: Potentiation of CFTR F508del mutant (unknown origin) expressed in CHO cells assessed as chloride transport by measuring membrane potential incubated for 5 to 30 mins in presence of forskolin by Quattro assay relative to PG-01; assay type: cell-based; design: concentration or dose not given beside the values; conditions: filed as activator, time 5-30 min
[4] = system: Cystic fibrosis transmembrane conductance regulator (Homo sapiens), P13569 [F508del]; experiment: Potentiation of CFTR F508 deletion mutant (unknown origin) expressed in HBE cells assessed as change in short circuit current in presence of forskolin and amiloride relative to PG-01; assay type: cell-based; conditions: filed as activator
[5] = Clearance in Sprague-Dawley rat at 3 mg/kg, po and 1 mg/kg, iv measured upto 48 hrs by LC MS/MS analysis; assay type: ADME, organism-based; conditions: in vivo
[6] = system: Cystic fibrosis transmembrane conductance regulator (Homo sapiens), P13569 [F508del]; experiment: Potentiation of CFTR F508del mutant (unknown origin) expressed in FRT cells assessed as chloride transport by measuring membrane potential in presence of forskolin relative to PG-01; assay type: cell-based; conditions: filed as activator
[7] = biological target: Cystic fibrosis transmembrane conductance regulator (Homo sapiens, UniProt P13569, G551D); experiment: Potentiation of CFTR G551D mutant (unknown origin) expressed in FRT cells assessed as chloride transport by measuring membrane potential in presence of forskolin; assay type: cell-based
[8] = Drug metabolism in Sprague-Dawley rat bile assessed as glutathione adduct M9 formation at 1 mg/kg, po after 24 hrs by LC MS/MS analysis; assay type: ADME, organism-based; conditions: in vivo
[9] = Oral bioavailability in Sprague-Dawley rat at 3 mg/kg measured upto 48 hrs by LC-MS/MS analysis; assay type: ADME, organism-based; conditions: in vivo
[10] = biological target: T2, Cystic fibrosis transmembrane conductance regulator (Homo sapiens, UniProt P13569); experiment: Potentiation of wild-type CFTR (unknown origin) expressed in FRT cells assessed as chloride transport by measuring membrane potential in presence of forskolin; assay type: cell-based
Target sequence in this assay (P13569 whole entry): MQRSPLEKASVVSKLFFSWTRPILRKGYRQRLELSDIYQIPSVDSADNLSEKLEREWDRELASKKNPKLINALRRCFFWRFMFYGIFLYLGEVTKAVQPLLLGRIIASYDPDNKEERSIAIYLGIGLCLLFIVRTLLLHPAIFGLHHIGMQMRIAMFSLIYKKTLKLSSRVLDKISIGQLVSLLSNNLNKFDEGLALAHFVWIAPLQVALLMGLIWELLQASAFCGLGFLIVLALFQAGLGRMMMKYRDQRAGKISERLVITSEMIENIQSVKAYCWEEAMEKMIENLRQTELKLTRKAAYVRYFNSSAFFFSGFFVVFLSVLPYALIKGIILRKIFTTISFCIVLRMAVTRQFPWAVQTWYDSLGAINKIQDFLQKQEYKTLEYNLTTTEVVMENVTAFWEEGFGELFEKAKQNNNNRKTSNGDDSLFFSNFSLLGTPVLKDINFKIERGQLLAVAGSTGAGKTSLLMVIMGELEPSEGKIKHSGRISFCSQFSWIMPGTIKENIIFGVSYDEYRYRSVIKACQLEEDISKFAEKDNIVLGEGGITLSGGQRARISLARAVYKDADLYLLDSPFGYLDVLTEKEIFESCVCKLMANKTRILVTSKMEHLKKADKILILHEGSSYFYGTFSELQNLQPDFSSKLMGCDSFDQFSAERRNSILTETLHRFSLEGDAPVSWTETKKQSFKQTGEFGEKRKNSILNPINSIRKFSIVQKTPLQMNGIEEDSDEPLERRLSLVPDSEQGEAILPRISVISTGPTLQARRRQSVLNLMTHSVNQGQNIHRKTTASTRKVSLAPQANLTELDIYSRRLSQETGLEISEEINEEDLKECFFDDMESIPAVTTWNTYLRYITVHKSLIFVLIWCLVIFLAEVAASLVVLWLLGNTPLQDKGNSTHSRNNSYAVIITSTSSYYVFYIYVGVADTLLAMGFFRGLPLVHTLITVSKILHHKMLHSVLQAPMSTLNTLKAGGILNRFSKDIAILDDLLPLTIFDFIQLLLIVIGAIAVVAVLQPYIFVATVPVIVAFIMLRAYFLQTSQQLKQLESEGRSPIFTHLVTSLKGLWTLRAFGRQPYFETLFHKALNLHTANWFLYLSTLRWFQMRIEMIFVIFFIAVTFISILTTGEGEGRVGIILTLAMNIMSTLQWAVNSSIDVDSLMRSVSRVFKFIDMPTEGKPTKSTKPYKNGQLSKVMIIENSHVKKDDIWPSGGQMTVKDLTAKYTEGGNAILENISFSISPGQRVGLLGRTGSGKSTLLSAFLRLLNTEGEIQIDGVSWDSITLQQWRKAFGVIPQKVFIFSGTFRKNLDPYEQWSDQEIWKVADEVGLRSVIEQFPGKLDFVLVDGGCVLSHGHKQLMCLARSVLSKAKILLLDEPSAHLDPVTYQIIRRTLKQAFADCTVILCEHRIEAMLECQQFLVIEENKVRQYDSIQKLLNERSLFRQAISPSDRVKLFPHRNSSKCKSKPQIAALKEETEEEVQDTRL

[11] = biological target: T1, Cystic fibrosis transmembrane conductance regulator; experiment: Potentiation of CFTR F508del mutant (unknown origin) expressed in FRT cells assessed as chloride transport by measuring membrane potential in presence of forskolin; assay type: cell-based
[12] = Plasma Protein binding in Sprague-Dawley rat at 5 uM incubated for 4 hrs by rapid equilibrium dialysis; assay type: ADME, cell-free; conditions: read-out: PPB (converted)
[13] = Unbound Cmax in Sprague-Dawley rat at 3 mg/kg, po and 1 mg/kg, iv measured upto 48 hrs by LC-MS/MS analysis; assay type: ADME, organism-based; conditions: in vivo
[14] = Toxicity in Wistar Han rat assessed as NOAEL; conditions: in vivo, dose 10 mg/kg
[15] = system: Cystic fibrosis transmembrane conductance regulator (Homo sapiens), P13569 [G551D]; experiment: Potentiation of CFTR G551D mutant (unknown origin) expressed in FRT cells assessed as chloride transport by measuring membrane potential in presence of forskolin relative to PG-01; assay type: cell-based; conditions: filed as activator
[16] = Volume of distribution in Sprague-Dawley rat at 3 mg/kg, po and 1 mg/kg, iv measured upto 48 hrs by LC-MS/MS analysis; assay type: ADME, organism-based; conditions: in vivo
[17] = Mean residence time in Sprague-Dawley rat at 3 mg/kg, po and 1 mg/kg, iv measured upto 48 hrs by LC-MS/MS analysis; assay type: ADME, organism-based; conditions: in vivo
[18] = biological target: T1, Cystic fibrosis transmembrane conductance regulator; experiment: Potentiation of CFTR F508 deletion mutant (unknown origin) expressed in HBE cells assessed as change in short circuit current in presence of forskolin and amiloride; assay type: cell-based
[19] = Drug metabolism in Sprague-Dawley rat bile assessed as glutathione adduct M8 formation at 1 mg/kg, po after 24 hrs by LC MS/MS analysis; assay type: ADME, organism-based; conditions: in vivo
[20] = Cmax in Sprague-Dawley rat at 3 mg/kg, po and 1 mg/kg, iv measured upto 48 hrs by LC-MS/MS analysis; assay type: ADME, organism-based; design: dose 3 mg/kg, time <=48; conditions: in vivo
[21] = biological target: T2, Cystic fibrosis transmembrane conductance regulator; experiment: Potentiation of wild-type CFTR (unknown origin) expressed in FRT cells assessed as chloride transport by measuring membrane potential in presence of forskolin relative to PG-01; assay type: cell-based; conditions: filed as activator
Target sequence in this assay (P13569 whole entry, looked up): as the sequence (P13569 whole entry) above

[22] = Plasma Protein binding in human incubated for 4 hrs by equilibrium dialysis method; assay type: ADME, cell-free
[23] = biological target: T2, Cystic fibrosis transmembrane conductance regulator; experiment: Potentiation of wild type CFTR (unknown origin) expressed in HBE cells assessed as change in short circuit current in presence of forskolin and amiloride; assay type: cell-based
Target sequence in this assay (P13569 whole entry): as above

T1 sequence (P13569 as listed by the source): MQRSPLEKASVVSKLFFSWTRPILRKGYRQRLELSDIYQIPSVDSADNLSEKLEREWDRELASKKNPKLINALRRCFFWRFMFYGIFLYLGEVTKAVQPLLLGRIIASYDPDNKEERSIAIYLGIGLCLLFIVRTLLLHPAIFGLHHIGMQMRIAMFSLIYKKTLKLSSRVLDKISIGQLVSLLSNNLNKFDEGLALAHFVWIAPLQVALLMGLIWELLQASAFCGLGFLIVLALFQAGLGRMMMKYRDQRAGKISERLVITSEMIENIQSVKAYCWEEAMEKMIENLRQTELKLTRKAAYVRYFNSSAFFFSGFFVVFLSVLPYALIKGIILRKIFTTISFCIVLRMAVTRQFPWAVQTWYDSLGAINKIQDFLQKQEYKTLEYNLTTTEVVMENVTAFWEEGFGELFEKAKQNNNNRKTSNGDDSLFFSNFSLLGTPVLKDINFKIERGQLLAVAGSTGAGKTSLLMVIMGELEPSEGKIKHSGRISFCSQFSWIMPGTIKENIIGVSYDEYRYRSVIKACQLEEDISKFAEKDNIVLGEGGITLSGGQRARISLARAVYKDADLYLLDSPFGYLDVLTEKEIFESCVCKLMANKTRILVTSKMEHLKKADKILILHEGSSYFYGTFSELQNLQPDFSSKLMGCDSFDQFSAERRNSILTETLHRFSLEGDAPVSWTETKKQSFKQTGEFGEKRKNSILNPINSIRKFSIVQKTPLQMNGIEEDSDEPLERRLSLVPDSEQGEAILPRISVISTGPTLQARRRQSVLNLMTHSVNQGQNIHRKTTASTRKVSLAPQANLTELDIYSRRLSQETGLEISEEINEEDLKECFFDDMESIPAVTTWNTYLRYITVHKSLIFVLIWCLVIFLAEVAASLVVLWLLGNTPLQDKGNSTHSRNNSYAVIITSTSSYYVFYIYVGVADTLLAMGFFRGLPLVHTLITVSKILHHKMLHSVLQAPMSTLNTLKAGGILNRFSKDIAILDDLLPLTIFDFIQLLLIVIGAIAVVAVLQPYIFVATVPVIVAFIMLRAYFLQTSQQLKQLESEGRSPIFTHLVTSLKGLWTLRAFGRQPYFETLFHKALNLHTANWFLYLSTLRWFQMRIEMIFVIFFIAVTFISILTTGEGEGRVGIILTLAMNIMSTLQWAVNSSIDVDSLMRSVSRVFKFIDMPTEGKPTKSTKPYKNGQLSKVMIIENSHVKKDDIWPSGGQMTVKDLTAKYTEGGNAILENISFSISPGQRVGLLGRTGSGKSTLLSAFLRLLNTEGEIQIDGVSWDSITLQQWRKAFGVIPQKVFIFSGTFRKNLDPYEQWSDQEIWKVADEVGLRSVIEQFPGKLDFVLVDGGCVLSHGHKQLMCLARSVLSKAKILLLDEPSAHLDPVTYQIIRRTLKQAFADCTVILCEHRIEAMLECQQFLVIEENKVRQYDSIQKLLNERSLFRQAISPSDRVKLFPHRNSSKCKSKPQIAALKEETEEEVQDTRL
Sequence of Cystic fibrosis transmembrane conductance regulator (Homo sapiens), P13569 [F508del] (P13569 as listed by the source): as above
Sequence of Cystic fibrosis transmembrane conductance regulator (Homo sapiens, UniProt P13569, G551D) (P13569 whole entry G551D): as the sequence (P13569 whole entry) above, with G551D counted along it
Sequence of Cystic fibrosis transmembrane conductance regulator (Homo sapiens), P13569 [G551D] (P13569 whole entry G551D): as the sequence (P13569 whole entry) above, with G551D counted along it

Structure (SMILES)	EC50 [1]	solubility [2]	Activity [3]	further results
Nc1cc(C(F)(F)F)c(Br)nc1C(=O)NC[C@H](O)C(F)(F)F	23 nM	290 µg/mL (≈ 732 µM)	102%	
Nc1cc(C(F)(F)F)c(Br)nc1C(=O)NCCC(F)(F)F	40 nM	49 µg/mL (≈ 129 µM)	132%	
CN(C)c1nc(C(=O)NCC(C)(O)C(F)(F)F)c(N)cc1C(F)(F)F (stereo in doubt; 31a) [listing 1 of 2 here]			89%	
CNC(=O)c1nc(Br)c(C(F)(F)F)cc1N	250 nM		97%	
COC(=O)c1ccc(C(F)(F)F)cc1N	3780 nM	< 1 µg/mL	72%	
Nc1cc(C(F)(F)F)c(Br)nc1C(=O)NCC(O)(C(F)(F)F)C(F)(F)F	10 nM	3 µg/mL (≈ 6.46 µM)	117%	
CN(C)c1nc(C(=O)NCC(C)(O)C(F)(F)F)c(N)cc1C(F)(F)F (stereo in doubt; 31b) [listing 1 of 2 here]			93%	
C[C@](O)(CNC(=O)c1nc(Br)c(C(F)(F)F)cc1N)C(F)(F)F	15 nM	140 µg/mL (≈ 341 µM)	107%	Activity [4]: 113%; clearance [5]: 17 mL/min/kg; Activity [6]: 106%; EC50 [7]: 150 nM; Drug metabolism [8]: Metabolite_Detected; bioavailability [9]: 114%; EC50 [10]: 43 nM; EC50 [11]: 18 nM; fraction unbound at 4 h, 5 µM [12]: 0.031; fCmax [13]: 25 nM; NOAEL [14]: < 10 mg/kg; Activity [15]: 67%; Vd [16]: 6.5 L/kg; MRT [17]: 6.4 h; EC50 [18]: 25 nM; Drug metabolism [19]: Metabolite_Detected; Cmax [20]: 634 nM; Activity [21]: 140%; fraction unbound at 4 h ([22]; read-out: PPB (converted)): 0.025
CNc1nc(C(=O)NCC(C)(O)C(F)(F)F)c(N)cc1C(F)(F)F (stereo in doubt; 30b)			95%	
Cc1nc(C(=O)NCC(C)(O)C(F)(F)F)c(N)cc1C(F)(F)F (racemic)	240 nM		99%	
COC(=O)c1cc(-c2ncco2)c(C(F)(F)F)cc1N	240 nM	36 µg/mL (≈ 126 µM)	92%	
COC(=O)c1cc(I)c(C(F)(F)F)cc1N	362 nM	2 µg/mL (≈ 5.8 µM)	104%	
CN(C)c1nc(C(=O)NCC(C)(O)C(F)(F)F)c(N)cc1C(F)(F)F (stereo in doubt; 31a) [listing 2 of 2 here]	20 nM	165 µg/mL (≈ 441 µM)		
CCc1nc(C(=O)NCC(C)(O)C(F)(F)F)c(N)cc1C(F)(F)F (stereo in doubt; 28b)			101%	
C[C@@](O)(CNC(=O)c1nc(Br)c(C(F)(F)F)cc1N)C(F)(F)F	30 nM	16 µg/mL (≈ 39 µM)	91%	
CC(C)(C)c1cc(C(C)(C)C)c(NC(=O)c2c[nH]c3ccccc3c2=O)cc1O [IVACAFTOR]				EC50 [7]: 131 nM; EC50 [23]: 34 nM; EC50 [10]: 70 nM; EC50 [11]: 49 nM; EC50 [18]: 68 nM
CN(C)c1nc(C(=O)NCC(C)(O)C(F)(F)F)c(N)cc1C(F)(F)F (stereo in doubt; 31b) [listing 2 of 2 here]	46 nM			
C[C@](O)(CNC(=O)c1nc(C(F)(F)F)c(C(F)(F)F)cc1N)C(F)(F)F	9 nM	82 µg/mL (≈ 205 µM)	113%	clearance [5]: 15 mL/min/kg; bioavailability [9]: 75%; fraction unbound at 4 h, 5 µM [12]: 0.019; fCmax [13]: 11 nM; Vd [16]: 6.4 L/kg; MRT [17]: 7.2 h; Cmax [20]: 595 nM; PPB ([22]; 4 h): 98.6%
COC(=O)c1ccccc1N [METHYL ANTHRANILATE]	30000 nM			
CNc1nc(C(=O)NCC(C)(O)C(F)(F)F)c(N)cc1C(F)(F)F (stereo in doubt; 30a)	276 nM	13 µg/mL (≈ 36.1 µM)		
